Results: patent EP3835316A1, “MOLECULES FOR USE TO TREAT OR PREVENT CARDIAC DISEASES” (Universiteit Gent, priority 2019, dated 2021)

Target: T1, Cx43 HC (Mus musculus, UniProt P23242)
T1 construct: left ventricular isolated cardiomyocytes were collected; endogenous in cells; host or cells: left ventricular cardiomyocytes acutely isolated from adult C57BL6 mice
Assay: Whole cell voltage-clamp recording of Cx43 HC unitary currents activated by combined RyR activation (caffeine)/[Ca2+]i elevation in isolated ventricular cardiomyocytes
Type: cell-based
Conditions: RyR inhibitors; [Ca2+]i clamped to 250 nM (10 mM BAPTA); Vm = -70 mV
Experimental: Adult C57BL6 mice, between 10 - 16 weeks, were heparinized (5000 IU/kg IP) and sacrificed by cervical dislocation. Following thoracotomy, the heart was quickly excised and then transferred to a Langendorff apparatus and perfused at a constant flow (^∼3 mL/min) and temperature (37°C). The heart was digested using collagenase and protease and left ventricular isolated cardiomyocytes were collected. Ca^2+-tolerant cells were used for the experiment for the next 6 hours. In case of Cx43 knockdown (KD) (Cx43^CreER(T)/fl) and respective control mice (Cre43^fl/fl) the isolation procedures were preceded by daily injection of tamoxifen to achieve global knockdown condition^25. Cre43^fl/fl mice are available from The Jackson Laboratory and the Cx43^CreER(T)/fl transgenic mouse strain can be made by any method known in the art.
Isolated ventricular cardiomyocytes and HeLa-Cx43 cells were studied under whole cell voltage-clamp to record membrane currents. Patch clamp experiments were conducted at room temperature (22 ± 1 °C). Fluo-4 (25 µM) was used to detect the [Ca^2+]i transients during the current recording.
Caffeine triggers two combined events, RyR activation and subsequent [Ca^2+]i elevation, and we next aimed to separate both processes. […] For simplicity, we further refer to the calculated concentrations in the following text. […]

T1 sequence (P23242 whole entry): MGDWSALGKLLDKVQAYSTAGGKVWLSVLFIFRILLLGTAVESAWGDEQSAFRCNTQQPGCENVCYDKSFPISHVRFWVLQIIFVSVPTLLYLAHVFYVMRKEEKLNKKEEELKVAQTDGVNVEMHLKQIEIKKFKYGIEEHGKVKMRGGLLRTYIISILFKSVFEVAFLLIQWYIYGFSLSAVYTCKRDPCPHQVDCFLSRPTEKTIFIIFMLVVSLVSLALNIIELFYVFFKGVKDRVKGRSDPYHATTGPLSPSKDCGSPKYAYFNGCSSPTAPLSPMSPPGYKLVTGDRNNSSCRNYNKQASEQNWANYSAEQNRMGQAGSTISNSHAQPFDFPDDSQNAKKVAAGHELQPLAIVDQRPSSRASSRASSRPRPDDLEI

| Compound | caffeine-induced Cx43 HC activation |
| --- | --- |
| ryanodine | did not inhibit |
| O=C1CN(/N=C/c2ccc(-c3ccc([N+](=O)[O-])cc3)o2)C(O)=N1 [dantrolene] | did not inhibit |
